Results on five compounds are retold here after patent US9227956B2 (Pfizer Inc., priority 2013, dated 2016).

The structures appear in SMILES notation.

Series [1] concerns human PCSK9. Briefly: PCSK9 AlphaLISA assay, PCSK9 lowering in WT7 cells. To be noted: WT7 cells (Huh7 stably over-expressing human PCSK9); secreted PCSK9 by AlphaLISA; overnight incubation (16-24 h); top concentration 20 μM; read-out: Cell Based PCSK9 IC50. Background: Bead proximity is the source of the signal in Alpha formats.
Series [2] has as its system human PCSK9. Briefly: Cell Free PCSK9 Assay (PCSK9-luciferase RNA translated in HeLa cell lysate). Format: biochemical. To be noted: 30° C. for 45 minutes, luciferase readout, top concentration 100 μM.
For series [3], the system named is PCSK9. The series is described as follows: PCSK9 lowering in sandwich culture human hepatocytes (SCHH). To be noted: maximum response versus vehicle; at 8 h at 100 μM. It counts as cell-based.
The test system of series [4] is PCSK9. Described as above. Format: cell-based. Particulars: maximum response versus vehicle; at 8 h at 30 μM.
For series [5], the system named is PCSK9. The series is described as follows: Global Proteomic Assay (SILAC), PCSK9 protein expression in conditioned media. Format: cell-based, human. To be noted: Huh7 cells.
Method: At the end of the indicated time points, media was removed and protease/phosphatase inhibitors added prior to freezing at −80° C. Cell layers were rinsed with PBS before adding cell dissociation buffer to detach the cells, cells were collected by rinsing with PBS and spun at 1000 rpm for 5 minutes. The cell pellet was resuspended in PBS for washing, spun at 1000 rpm for 5 minutes and the supernatant aspirated. The cell layer was then frozen at −80° C. and both the media and cell pellet were subjected to proteomic analysis.
(§1) For proteomic analysis of secreted proteins, equal volume of the conditioned media from light, medium, and heavy cells was mixed, followed by depletion of bovine serum albumin by anti-BSA agarose beads. The resulting proteins were subsequently concentrated using 3 KDa MWCO spin columns, reduced with dithiothreitol and alkylated with iodoacetamide.
The proteins derived from conditioned media and cell pellets were subsequently fractionated by SDS-PAGE. […]
(§2) The peptide mixtures were reconstituted in 0.1% formic acid. […] Peptide identification and relative protein quantification were carried out by searching the mass spectra against the human IPI database using Mascot search engine on Proteome Discoverer 1.3. […] Changes in protein expression upon compound treatment were calculated from the relative intensity of isotope-labeled and unlabeled peptides derived from that protein.
For a further series, the system named is Huh7 cells. Briefly: Global Proteomic Assay (SILAC), non-PCSK9 proteins with decreased expression. Format: cell-based, human.

Method for Huh7 cells: Cell layers were rinsed with PBS before adding cell dissociation buffer to detach the cells, cells were collected by rinsing with PBS and spun at 1000 rpm for 5 minutes. The cell pellet was resuspended in PBS for washing, spun at 1000 rpm for 5 minutes and the supernatant aspirated. The cell layer was then frozen at −80° C. and both the media and cell pellet were subjected to proteomic analysis.
as §1
For the analysis of cellular proteins, cell pellets were lysed in SDS-PAGE loading buffer in the presence of protease/phosphatase inhibitor cocktails. Cell lysates were centrifuged at 12000×g at 4° C. for 10 min. The resulting supernatants were collected, and protein concentrations were measured by BCA assay. Equal amount proteins in the light, medium, and heavy cell lysates were combined, reduced with dithiothreitol and alkylated with iodoacetamide.
The proteins derived from conditioned media and cell pellets were subsequently fractionated by SDS-PAGE. The gels were stained with Coomassie blue. After destaining, the gels were cut into 12-15 bands. Proteins were in-gel digested by trypsin overnight, after which peptides were extracted from the gels with CH3CN:1% formic acid (1:1, v/v). The resulting peptide mixtures were desalted with C18 Stage-Tips, dried in speedvac and stored at −20° C. until further analysis.
as §2

On to `Cn1ncc(-c2ccc(C(=O)N(c3ncccc3Cl)[C@@H]3CCCNC3)cc2)c1C(=O)O` [Example 7, 4-(4-{(3-chloropyridin-2-yl)[(3R)-piperidin-3-yl]carbamoyl}phenyl)-1-methyl-1H-pyrazole-5-carboxylic acid], for which the IC50 in the series with human PCSK9 [1] was above 20 µM; in the series with human PCSK9 [2], 18 µM. Further, the “Sandwich Culture Hepatocyte (SCHH) PCSK9 Lowering” value in the series with PCSK9 [3] is reported as 26% at 8 h at 100 μM.

With `CCOC(=O)O[C@H](C)OC(=O)c1c(-c2ccc(C(=O)N(c3ncccc3Cl)[C@@H]3CCCNC3)cc2)cnn1C` [Example 15b, (1R)-1-[(ethoxycarbonyl)oxy]ethyl 4-(4-{(3-chloropyridin-2-yl)[(3R)-piperidin-3-yl]carbamoyl}phenyl)-1-methyl-1H-pyrazole-5-carboxylate], the IC50 in the series on human PCSK9 [1] is 10.7 µM; with human PCSK9 [2], 5 µM. In the series on PCSK9 [4], the “Sandwich Culture Hepatocyte (SCHH) PCSK9 Lowering” value is recorded as 58% at 8 h at 30 μM. The “PCSK9 in conditioned media relative to vehicle” value with PCSK9 [5] (10 μM, 4 and 16 h post-treatment) is reported as “significantly reduced”. In the series on Huh7 cells (10 μM, 4 and 16 h, two proteins (Apolipoprotein A2, Cadherin 1) of approx. 1500), the “additional proteins in conditioned media with significant decrease in expression” value is reported as “approx. 0.13%”.

In the series on human PCSK9 [2], `O=C(c1ccc(-n2nnc3cccnc32)cc1)N(c1ncccc1Cl)[C@@H]1CCCNC1` [Example 16, N-(3-chloropyridin-2-yl)-N-[(3R)-piperidin-3-yl]-4-(3H-[1,2,3]triazolo[4,5-b]pyridin-3-yl)benzamide] gave a half-inhibitory concentration (IC50) of 0.52 µM. Further, in the series with PCSK9 [4], the “Sandwich Culture Hepatocyte (SCHH) PCSK9 Lowering” value is on record as 87% at 8 h at 30 μM. In addition, the “decrease of PCSK9 protein expression in the conditioned media” value with PCSK9 [5] (16 hours of treatment, 0.3 μM) was 2 fold. Besides, in the series with Huh7 cells (2 proteins (Apolipoprotein C3, Cadherin 1) of greater than 3000 cellular proteins), the “cellular proteins significantly decreased” value is 0.067%. Further, the “additional proteins with significant reduction in expression (media and cells)” value in the series on Huh7 cells (4 of 4083 proteins) worked out at 0.098%.

In the case of `Cc1cccnc1N(C(=O)c1ccc(-c2cnn(C)c2-c2nn[nH]n2)cc1)[C@@H]1CCCNC1` [Example 17, N-(3-methylpyridin-2-yl)-4-[1-methyl-5-(2H-tetrazol-5-yl)-1H-pyrazol-4-yl]-N-[(3R)-piperidin-3-yl]benzamide], the figures for the concentration for half-maximal inhibition (IC50) in the series on human PCSK9 [1] and in the series on human PCSK9 [2] were above 20 µM and 3.05 µM, respectively. Also, the “Sandwich Culture Hepatocyte (SCHH) PCSK9 Lowering” value with PCSK9 [3] amounted to 63% at 8 h at 100 uM.

As to `Cc1cccnc1N(C(=O)c1ccc(-c2cnn(C)c2-c2noc(=O)[nH]2)cc1)[C@@H]1CCCNC1` [Example 18, 4-[1-methyl-5-(5-oxo-4,5-dihydro-1,2,4-oxadiazol-3-yl)-1H-pyrazol-4-yl]-N-(3-methylpyridin-2-yl)-N-[(3R)-piperidin-3-yl]benzamide], the IC50 was above 20 µM with human PCSK9 [1] and 5.61 µM in the series with human PCSK9 [2]. For the same compound, the “Sandwich Culture Hepatocyte (SCHH) PCSK9 Lowering” value with PCSK9 [3] came to 15% at 8 h at 100 uM.

The term IC50 denotes the concentration at which inhibition is half-maximal.
